Measured values: patent publication US12077503B2, “Substituted cyclic amides and their use as herbicides” (FMC CORPORATION, priority 2015, dated 2024)

Experiments:
Assay type in all cases: in vivo
[1] = test system: Galium (catchweed bedstraw, Galium aparine); test: Test A postemergence; settings: Galium, post-emergence, 240 h, 125 g ai/ha, Postemergence; visual injury after approximately 10 d; 0 to 100 scale where 0 is no effect and 100 is complete control; read-out: Plant response rating, Galium
In short: (§1)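 Preemergence soil spray on seeded pots or post-emergence spray on 1–2 leaf plants, in loam–sand blend. Greenhouse ~10 d. Visual rating 0–100 against untreated plants.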

[2] = test system: ragweed (common ragweed, Ambrosia elatior); test: Test A postemergence; settings: Ambrosia artemisiifolia, post-emergence, 240 h, 125 g ai/ha, Postemergence; visual injury after approximately 10 d; 0 to 100 scale where 0 is no effect and 100 is complete control; read-out: Plant response rating, Ragweed
In short: as §1

[3] = test system: pigweed (Amaranthus retroflexus); test: Test A postemergence; settings: Amaranthus retroflexus, post-emergence, 240 h, 125 g ai/ha, Postemergence; visual injury after approximately 10 d; 0 to 100 scale where 0 is no effect and 100 is complete control; read-out: Plant response rating, Pigweed
In short: as §1

Kochia (Kochia scoparia) [4] = test: Test A postemergence; settings: Bassia scoparia, post-emergence, 240 h, 125 g ai/ha, Postemergence; visual injury after approximately 10 d; 0 to 100 scale where 0 is no effect and 100 is complete control; read-out: Plant response rating, Kochia
In short: as §1

[5] = test system: wheat (Triticum aestivum); test: Test A postemergence; settings: Triticum aestivum, post-emergence, 240 h, 125 g ai/ha, Postemergence; visual injury after approximately 10 d; 0 to 100 scale where 0 is no effect and 100 is complete control; read-out: Plant response rating, Wheat
In short: as §1

[6] = test system: ryegrass, Italian (Italian ryegrass, Lolium multiflorum); test: Test A postemergence; settings: Lolium multiflorum, post-emergence, 240 h, 125 g ai/ha, Postemergence; visual injury after approximately 10 d; 0 to 100 scale where 0 is no effect and 100 is complete control; read-out: Plant response rating, Ryegrass, Italian
In short: as §1

[7] = test system: barnyardgrass (Echinochloa crus-galli); test: Test A postemergence; settings: Echinochloa crus-galli, post-emergence, 240 h, 125 g ai/ha, Postemergence; visual injury after approximately 10 d; 0 to 100 scale where 0 is no effect and 100 is complete control; read-out: Plant response rating, Barnyardgrass
In short: as §1

[8] = test system: giant foxtail (Setaria faberii); test: Test A postemergence; settings: Setaria faberi, post-emergence, 240 h, 125 g ai/ha, Postemergence; visual injury after approximately 10 d; 0 to 100 scale where 0 is no effect and 100 is complete control; read-out: Plant response rating, Foxtail, Giant
In short: as §1

corn (Zea mays) = test: Test A postemergence; settings: Zea mays, post-emergence, 240 h, 125 g ai/ha, Postemergence; visual injury after approximately 10 d; 0 to 100 scale where 0 is no effect and 100 is complete control
In short: as §1

[9] = test system: blackgrass (Alopecurus myosuroides); test: Test A postemergence; settings: Alopecurus myosuroides, post-emergence, 240 h, 125 g ai/ha, Postemergence; visual injury after approximately 10 d; 0 to 100 scale where 0 is no effect and 100 is complete control; read-out: Plant response rating, Blackgrass
In short: as §1

[10] = test system: sedge, umbrella (small-flower umbrella sedge, Cyperus difformis); test: Test B flooded paddy test; settings: Cyperus difformis, Flood, 250 g ai/ha; scale of 0 to 100 where 0 is no effect and 100 is complete control; read-out: Sedge, Umbrella plant response rating
In short: (§2)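 Response scored visually against untreated controls, 0 = no effect and 100 = complete control, 13–15 d after treatment in the greenhouse. Compounds added to paddy water held 3 cm above soil surface. Treatment given at 2-leaf stage.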

[11] = test system: barnyardgrass (Echinochloa crus-galli); test: Test B flooded paddy test; settings: Echinochloa crus-galli, Flood, 250 g ai/ha; scale of 0 to 100 where 0 is no effect and 100 is complete control; read-out: Barnyardgrass plant response rating
In short: as §2

rice (Oryra sativa) = test: Test B flooded paddy test; settings: Oryza sativa, Flood, 250 g ai/ha; scale of 0 to 100 where 0 is no effect and 100 is complete control; read-out: Rice plant response rating
In short: as §2

[12] = test system: ducksalad (Heteranthera limosa); test: Test B flooded paddy test; settings: Heteranthera limosa, Flood, 250 g ai/ha; scale of 0 to 100 where 0 is no effect and 100 is complete control; read-out: Ducksalad plant response rating
In short: as §2

[13] = test system: ragweed (common ragweed, Ambrosia elatior); test: Test A preemergence; settings: Ambrosia artemisiifolia, pre-emergence, 240 h
In short: as §1

[14] = test system: pigweed (Amaranthus retroflexus); test: Test A preemergence; settings: Amaranthus retroflexus, pre-emergence, 240 h
Kochia (Kochia scoparia) [15] = test: Test A preemergence; settings: Bassia scoparia, pre-emergence, 240 h
In short: as §1

[16] = test system: ryegrass, Italian (Italian ryegrass, Lolium multiflorum); test: Test A preemergence; settings: Lolium multiflorum, pre-emergence, 240 h
In short: as §1

[17] = test system: barnyardgrass (Echinochloa crus-galli); test: Test A preemergence; settings: Echinochloa crus-galli, pre-emergence, 240 h
In short: as §1

[18] = test system: giant foxtail (Setaria faberii); test: Test A preemergence; settings: Setaria faberi, pre-emergence, 240 h
In short: as §1

CCc1cc(CC)cc([C@H]2CNC(=O)[C@@H]2C(=O)Nc2ccccc2C(F)(F)F)c1 [Compound 969]
40%: pest or weed control at 125 g/ha ([16]; 125 g ai/ha, Preemergence, visual injury rating after approximately 10 d, read-out: Ryegrass, Italian plant response rating (0 to 100 scale, 0 is no effect, 100 is complete control))
90%: pest or weed control at 125 g/ha ([18]; 125 g ai/ha, Preemergence, visual injury rating after approximately 10 d, read-out: Foxtail, Giant plant response rating (0 to 100 scale, 0 is no effect, 100 is complete control)) | pest or weed control at 500 g/ha ([18]; 500 g ai/ha, preemergence, visual injury rating about 10 d after treatment, 0 to 100 scale (0 no effect, 100 complete control), read-out: Foxtail, Giant plant response rating)
30%: plant injury at 125 g/ha [5] | pest or weed control at 500 g/ha ([16]; 500 g ai/ha, preemergence, visual injury rating about 10 d after treatment, 0 to 100 scale (0 no effect, 100 complete control), read-out: Ryegrass, Italian plant response rating)
80%: pest or weed control at 500 g/ha ([17]; 500 g ai/ha, preemergence, visual injury rating about 10 d after treatment, 0 to 100 scale (0 no effect, 100 complete control), read-out: Barnyardgrass plant response rating)
20%: pest or weed control at 125 g/ha [1] | pest or weed control at 125 g/ha [6]
50%: pest or weed control at 125 g/ha [7] | pest or weed control at 125 g/ha [8] | Corn plant response rating (crop injury, 0 = no effect, 100 = complete kill) at 125 g/ha (corn (Zea mays)) | pest or weed control at 125 g/ha ([17]; 125 g ai/ha, Preemergence, visual injury rating after approximately 10 d, read-out: Barnyardgrass plant response rating (0 to 100 scale, 0 is no effect, 100 is complete control))
0%: pest or weed control at 125 g/ha [2] | pest or weed control at 125 g/ha [3] | pest or weed control at 125 g/ha (Kochia (Kochia scoparia) [4]) | pest or weed control at 125 g/ha [9] | pest or weed control at 250 g/ha [10] | pest or weed control at 250 g/ha [11] | pest or weed control at 250 g/ha (rice (Oryra sativa)) | pest or weed control at 250 g/ha [12] | pest or weed control at 125 g/ha ([13]; 125 g ai/ha, Preemergence, visual injury rating after approximately 10 d, read-out: Ragweed plant response rating (0 to 100 scale, 0 is no effect, 100 is complete control)) | pest or weed control at 500 g/ha ([13]; 500 g ai/ha, preemergence, visual injury rating about 10 d after treatment, 0 to 100 scale (0 no effect, 100 complete control), read-out: Ragweed plant response rating) | pest or weed control at 125 g/ha ([14]; 125 g ai/ha, Preemergence, visual injury rating after approximately 10 d, read-out: Pigweed plant response rating (0 to 100 scale, 0 is no effect, 100 is complete control)) | pest or weed control at 500 g/ha ([14]; 500 g ai/ha, preemergence, visual injury rating about 10 d after treatment, 0 to 100 scale (0 no effect, 100 complete control), read-out: Pigweed plant response rating) | pest or weed control at 125 g/ha (Kochia (Kochia scoparia) [15]; 125 g ai/ha, Preemergence, visual injury rating after approximately 10 d, read-out: Kochia plant response rating (0 to 100 scale, 0 is no effect, 100 is complete control)) | pest or weed control at 500 g/ha (Kochia (Kochia scoparia) [15]; 500 g ai/ha, preemergence, visual injury rating about 10 d after treatment, 0 to 100 scale (0 no effect, 100 complete control), read-out: Kochia plant response rating)
